PubChem BioAssay AID256 (DTP/NCI, 2004)
Inconclusive results and toxic doses are left out. Rule for the calls: active = survival T/C of 150% or more; inactive = T/C below 125% in these data.

System: CD2F1 mice, L1210 leukemia ip, survival T/C
Assay: NCI In Vivo Anticancer Drug Screen. Data for tumor model L1210 Leukemia (intraperitoneal) in CD2F1 (CDF1) mice
Settings: endpoint: mean survival time, higher = longer survival
In short: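 Transplantable tumor in mice; compound-treated vs vehicle-treated groups. Read-out = treated/control ratio of the measured endpoint.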

Measured: T/C

CCOC(=O)C(Cc1ccc(CC(NC(C)=O)(C(=O)OCC)C(=O)OCC)cc1)(NC(C)=O)C(=O)OCC
inactive: dose: 12.5 mg/kg/injection, schedule: Q01DX009 (ip), vehicle: other 96 % of control | dose: 25.0 mg/kg/injection, schedule: Q01DX009 (ip), vehicle: other 94 % of control | dose: 50.0 mg/kg/injection, schedule: Q01DX009 (ip), vehicle: other 97 % of control | dose: 100.0 mg/kg/injection, schedule: Q01DX009 (ip), vehicle: other 91 % of control | dose: 200.0 mg/kg/injection, schedule: Q01DX009 (ip), vehicle: other 92 % of control

[O]=[Mo]
inactive: dose: 100.0 mg/kg/injection, schedule: Q04DX003 (ip), vehicle: saline 107 % of control

CCCCOC(=O)c1cc([N+](=O)[O-])cc([N+](=O)[O-])c1Sc1ncnc2nc[nH]c12
inactive: dose: 0.63 mg/kg/injection, schedule: Q01DX005 (ip), vehicle: other 108 % of control | dose: 1.25 mg/kg/injection, schedule: Q01DX005 (ip), vehicle: other 95 % of control | dose: 2.5 mg/kg/injection, schedule: Q01DX005 (ip), vehicle: other 110 % of control | dose: 5.0 mg/kg/injection, schedule: Q01DX005 (ip), vehicle: other 113 % of control | dose: 9.4 mg/kg/injection, schedule: Q01DX005 (ip), vehicle: other 98 % of control | dose: 10.0 mg/kg/injection, schedule: Q01DX005 (ip), vehicle: other 115 % of control | dose: 18.8 mg/kg/injection, schedule: Q01DX005 (ip), vehicle: other 103 % of control | dose: 37.5 mg/kg/injection, schedule: Q01DX005 (ip), vehicle: other 109 % of control | dose: 75.0 mg/kg/injection, schedule: Q01DX005 (ip), vehicle: other 113 % of control

CN(C)C/C(=N\OC(=O)c1ccccc1)c1ccc(Cl)cc1
inactive: dose: 50.0 mg/kg/injection, schedule: Q01DX009 (ip), vehicle: saline with Tween-80 107 % of control | dose: 100.0 mg/kg/injection, schedule: Q01DX001 (ip), vehicle: saline with Tween-80 96 % of control | dose: 100.0 mg/kg/injection, schedule: Q01DX009 (ip), vehicle: saline with Tween-80 96 % of control | dose: 200.0 mg/kg/injection, schedule: Q01DX001 (ip), vehicle: saline with Tween-80 104 % of control | dose: 200.0 mg/kg/injection, schedule: Q01DX009 (ip), vehicle: saline with Tween-80 96 % of control | dose: 400.0 mg/kg/injection, schedule: Q01DX001 (ip), vehicle: saline with Tween-80 93 % of control

Nc1cc(OCc2ccccc2)c(N)c(N)n1
inactive: dose: 1.56 mg/kg/injection, schedule: Q01DX005 (ip), vehicle: water 98 % of control | dose: 3.13 mg/kg/injection, schedule: Q01DX005 (ip), vehicle: water 97 % of control | dose: 6.25 mg/kg/injection, schedule: Q01DX005 (ip), vehicle: water 98 % of control | dose: 12.5 mg/kg/injection, schedule: Q01DX005 (ip), vehicle: water 98 % of control | dose: 25.0 mg/kg/injection, schedule: Q01DX005 (ip), vehicle: water 97 % of control

Cc1ccc2c(c1)C(=O)/C(=C/c1ccccn1)CCO2
inactive: dose: 100.0 mg/kg/injection, schedule: Q04DX002 (ip), vehicle: saline with Tween-80 92 % of control | dose: 200.0 mg/kg/injection, schedule: Q04DX002 (ip), vehicle: saline with Tween-80 88 % of control | dose: 400.0 mg/kg/injection, schedule: Q04DX002 (ip), vehicle: saline with Tween-80 92 % of control

CN(Cc1ccccc1)C1CCC(C(=O)O)CC1 (configuration not stated)
inactive: dose: 100.0 mg/kg/injection, schedule: Q01DX009 (ip), vehicle: saline 107 % of control | dose: 200.0 mg/kg/injection, schedule: Q01DX009 (ip), vehicle: saline 107 % of control | dose: 400.0 mg/kg/injection, schedule: Q01DX009 (ip), vehicle: saline 100 % of control

CC12CCC3C(CC=C4CC(SC(=N)N)CCC43C)C1CCC2=O (configuration not stated)
inactive: dose: 75.0 mg/kg/injection, schedule: Q01DX001 (ip), vehicle: steriod suspending solution 90 % of control | dose: 150.0 mg/kg/injection, schedule: Q01DX001 (ip), vehicle: steriod suspending solution 98 % of control | dose: 300.0 mg/kg/injection, schedule: Q01DX001 (ip), vehicle: steriod suspending solution 98 % of control

O=S(CC(O)c1ccccc1)c1ccccc1 (configuration not stated)
inactive: dose: 100.0 mg/kg/injection, schedule: Q04DX003 (ip), vehicle: saline with Tween-80 93 % of control | dose: 200.0 mg/kg/injection, schedule: Q04DX003 (ip), vehicle: saline with Tween-80 102 % of control
